Earlier results in US20050277132A1, “Nematode GS-like sequences” (Divergence Inc., a Delaware corporation, priority 2001, published 2005).

Columns and labels:
[1] = tested on: pathogenic bacteria that are known to secrete glutamine synthetase; settings: bacteria that secrete glutamine synthetase into the extracellular milieu
[2] = tested on: bacterial glutamine synthetase enzymes; settings: in vitro and in cell culture
[3] = tested on: nonpathogenic bacteria that do not export glutamine synthetase
[4] = tested on: everted hamster jejunal and ileal segments
[5] = tested on: isolated intestinal epithelial cells

In the case of `CS(=N)(=O)CC[C@H](N)C(=O)O` (stereo partly drawn) [L-methionine-S-sulfoximine], the “growth of pathogenic bacteria” value [1] is listed as “selectively block growth”, the “times more active against certain bacterial glutamine synthetase enzymes than representative mammalian glutamine synthetases” value [2] is listed as 100 times and the “effect against nonpathogenic bacteria” value [3] is listed as “no effect”.

For `CCCCCC[C@@H](O)C/C=C\CCCCCCCC(=O)O` [Ricinoleic acid], the “effect on water and electrolyte absorption” value [4] is listed as “inhibitory effect” and the cytotoxicity [5] is listed as “cytotoxic”.

For `CCCCCC[C@@H](O)C/C=C\CCCCCCCC(=O)OC` [methyl ester of ricinoleic acid], the “effect on water and electrolyte absorption” value [4] is listed as “ineffective”.
